Data as given in US20130231316A1, “Drug Combination Comprising a Selective Serotonin Reuptake Inhibitor and a Glucocorticoid Receptor Antagonist for the Treatment of Depression” (priority 2004, published 2013).
Where two headings read alike, the source gives them in different places.

Test system: 5-HT1A autoreceptor
Settings: fluoxetine 10 mg/kg i.p. daily, Org 34850 15 mg/kg i.p. twice daily or vehicle, fall following i.p. injection of fluoxetine 10 mg/kg, prefrontal cortex
Description: In experimental animals this desensitization can be measured using microdialysis in the prefrontal cortex and a combination of local administration of an SSRI (fluoxetine) in the region of the probe to block local uptake and systemic injection which affects all uptake sites and leads to 5-HT1A autoreceptor activation.
Studies were performed on Hooded Lister rats housed in groups of three with food and water available ad libitum. Animals were kept in controlled environmental conditions: temperature (20° C.) and humidity (30-50%) on a 12 h light/dark cycle (lights on 07.00 a.m.). Each cage received the same treatment and animals from a single cage studied on the same day to avoid social isolation. Animals underwent two treatments; vehicle or GR antagonist (15 mg/kg Org 34850, intraperitoneally (i.p.)) given as twice daily injections at 07:00-07:30 and 19:00-19:30. All animals received a single daily injection of fluoxetine (10 mg/kg in sterile water i.p.) given in the morning. Treatment periods were 0 (control), 3, 7 or 14 days.
For microdialysis animals were anaesthetised with chloral hydrate (500 mg/kg i.p. plus supplementary doses as required). Surgery was undertaken to position a microdialysis probe in the right prefrontal cortex (stereotaxic coordinates: rostral +3.2 mm, lateral 0.5 mm, ventral −4.6 mm from bregma and dura surface). The probe was perfused with artificial cerebrospinal fluid (aCSF) for 3 h until stable basal level of 5-HT is achieved. Samples were collected every 20 minutes and analysed by HPLC with electrochemical detection. The experimental protocol comprised three phases: i) Basal extracellular levels of 5-HT were measured for 60 min.; ii) Fluoxetine (10 μM) was added to the aCSF to block local uptake in order to measure total release rate. Samples were collected for 80 min. and iii) Fluoxetine was injected i.p. (10 mg/kg) to block all uptake sites, including at the autoreceptor, and samples were collected for 120 min. The magnitude of the fall in measured 5-HT levels after this injection was used as a measure of autoreceptor sensitivity.

In the case of `CNCCC(Oc1ccc(C(F)(F)F)cc1)c1ccccc1` (stereo not drawn) [fluoxetine], the “Mean Fall in 5-HT levels” value (3 days pretreatment) is reported as 7.59 fmol, the “Mean Fall in 5-HT levels” value (7 days pretreatment) is reported as 7.37 fmol and the “Mean Fall in 5-HT levels” value (14 days pretreatment) is reported as 4.85 fmol.
